The results in this text go back to patent US10167257B2, “Indole derivatives for use in medicine” (IOmet Pharma Ltd., priority 2014, dated 2019).

The structures appear in SMILES notation.

For experiment [1], the target named is T1, TDO (A172 cells) (Homo sapiens, UniProt P48775).
T1 construct: This assay utilised cancer cells which expressed either TDO or IDO; host or cells: A172 human glioblastoma cells
Kind of experiment: TDO cell-based assay (A172), kynurenine production. The note with it: A172 human glioblastoma cells, 500 μM L-Trp, 48 h, kynurenine by absorbance at 490 nm. The source says:
(§1) Two different types of assay were employed: 1. A TDO and IDO biochemical coupled assay which utilised recombinantly produced and purified TDO and IDO enzymes in combination with the enzyme formamidase. This coupled enzyme system allowed conversion of N-formylkynurenine produced by TDO or IDO activity to kynurenine which was then quantified by fluorescence following addition of Erhlich's Reagent. 2. A cell-based assay for detecting the effect of test compounds on kynurenine production in two different cancer cell types. This assay utilised cancer cells which expressed either TDO or IDO and as such was used as a means of testing compound activity at these two enzymes in a cell-based context. The protocols for these are set out below.
(§2) A172 human glioblastoma (ATCC) were grown in DMEM+2 mM L-glutamine medium supplemented with 10% foetal bovine serum and SKOV-3 ovary adenocarcinoma (ATCC) cells were grown in McCoys 5A+L-glutamax medium supplemented with 15% foetal bovine serum. On the day of assay, cells were detached using trypsin-EDTA (0.25% v/v), re-suspended in assay media (RPMI 1640 phenol red free+L-glutamine supplemented with 10% dialysed foetal bovine serum). A172 cells were seeded at 30K cells per well and SKOV-3 cells at 40K cells per well into 96-well plates containing test samples/vehicle control together with 500 μM L-Trp. Cells were then incubated for 48 h at 37° C., 5% CO2. In SK-OV-3 cells, IFNγ was also added at 500 ng/ml for the 48 h incubation in order to induce expression of IDO. Plates were centrifuged and the supernatant was removed and incubated for 5 min in the presence of 1% Erhlich's reagent. Kynurenine levels were then quantified by measuring absorbance at 490 nm.

Experiment [2] has as its target T2, IDO (SKOV-3 cells) (Homo sapiens, UniProt P14902).
T2 construct: This assay utilised cancer cells which expressed either TDO or IDO; host or cells: SKOV-3 ovary adenocarcinoma cells, IFNγ-induced
Kind of experiment: IDO cell-based assay (SKOV-3, IFNγ-induced), kynurenine production. To be noted: SKOV-3 ovary adenocarcinoma cells, IFNγ 500 ng/ml, 500 μM L-Trp, 48 h, kynurenine by absorbance at 490 nm.
Text: as §1, §2

T1 sequence (P48775 whole entry): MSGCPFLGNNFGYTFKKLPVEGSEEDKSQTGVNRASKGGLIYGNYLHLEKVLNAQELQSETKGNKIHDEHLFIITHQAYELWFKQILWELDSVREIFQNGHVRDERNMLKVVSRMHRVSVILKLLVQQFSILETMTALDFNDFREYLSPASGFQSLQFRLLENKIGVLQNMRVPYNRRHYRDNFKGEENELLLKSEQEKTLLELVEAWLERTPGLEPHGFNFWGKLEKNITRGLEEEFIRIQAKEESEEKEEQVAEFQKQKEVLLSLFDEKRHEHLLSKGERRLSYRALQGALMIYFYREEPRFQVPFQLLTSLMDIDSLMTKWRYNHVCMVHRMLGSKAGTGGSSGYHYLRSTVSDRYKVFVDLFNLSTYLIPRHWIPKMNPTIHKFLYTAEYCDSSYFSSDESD
T2 sequence (P14902 whole entry): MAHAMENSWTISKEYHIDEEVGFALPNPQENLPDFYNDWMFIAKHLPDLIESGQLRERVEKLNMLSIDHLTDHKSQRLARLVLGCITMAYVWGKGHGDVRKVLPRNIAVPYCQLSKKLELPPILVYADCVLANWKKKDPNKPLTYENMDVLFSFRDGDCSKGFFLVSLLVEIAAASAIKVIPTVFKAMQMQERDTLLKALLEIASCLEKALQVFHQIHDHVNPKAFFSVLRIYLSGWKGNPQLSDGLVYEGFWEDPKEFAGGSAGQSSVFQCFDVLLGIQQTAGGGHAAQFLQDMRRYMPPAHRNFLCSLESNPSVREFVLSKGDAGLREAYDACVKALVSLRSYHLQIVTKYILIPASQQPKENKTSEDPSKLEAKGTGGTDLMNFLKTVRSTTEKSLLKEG

Take `CC(NC(=O)c1cc2c(Cl)c(Cl)ccc2[nH]1)c1cccnc1` (stereo not drawn) [Compound 21]: in experiment [1], the “TDO cellular assay (A172) pIC50” value is “− (− = pIC50 <4.50)”. Besides, the “IDO cellular assay (SKOV3) pIC50” value in experiment [2] is recorded as “++ (++ = pIC50 5.00-<5.50)”.
Taken in the same sequence, the figures for `CC(NC(=O)c1cc2cc(F)ccc2[nH]1)c1cccc(F)c1` (stereo not drawn) [Compound 22] were “+ (+ = pIC50 4.50-<5.00)” and “++ (++ = pIC50 5.00-<5.50)”.
For `CC(C)C(NC(=O)c1cc2cc(F)ccc2[nH]1)c1cccs1` (stereo not drawn) [Compound 23], in that order: “− (− = pIC50 <4.50)” and “+++ (+++ = pIC50 ≥5.50)”.
`Cc1ccc(C(C)NC(=O)c2cc3cc(F)ccc3[nH]2)o1` (stereo not drawn) [Compound 24]: in experiment [1], the “TDO cellular assay (A172) pIC50” value is listed as “+ (+ = pIC50 4.50-<5.00)”. Besides, the “IDO cellular assay (SKOV3) pIC50” value in experiment [2] is “++ (++ = pIC50 5.00-<5.50)”.
For `CC(NC(=O)c1cc2cc(Cl)ccc2[nH]1)c1ccccc1` (stereo not drawn) [Compound 25], in that order: “+++ (+++ = pIC50 ≥5.50)” and “+++ (+++ = pIC50 ≥5.50)”.
Taken in the same sequence, the figures for `Cc1ccc2[nH]c(C(=O)NC(C)c3ccccc3)cc2c1` (stereo not drawn) [Compound 26] were “++ (++ = pIC50 5.00-<5.50)” and “+++ (+++ = pIC50 ≥5.50)”.
`Cc1ccc2[nH]c(C(=O)NCc3ccc(F)cc3)cc2c1` [Compound 27]: in experiment [1], the “TDO cellular assay (A172) pIC50” value is listed as “− (− = pIC50 <4.50)”. In addition, in experiment [2], the “IDO cellular assay (SKOV3) pIC50” value was “++ (++ = pIC50 5.00-<5.50)”.
Taken in the same sequence, the figures for `O=C(NCc1ccc(F)cc1)c1cc2cc(Cl)ccc2[nH]1` [Compound 28] were “− (− = pIC50 <4.50)” and “+ (+ = pIC50 4.50-<5.00)”.
For `COc1ccc(CNC(=O)c2cc3cc(F)ccc3[nH]2)cc1` [Compound 29], in that order: “− (− = pIC50 <4.50)” and “+ (+ = pIC50 4.50-<5.00)”.
For `O=C(NCc1cccc(Cl)c1)c1cc2ccccc2[nH]1` [Compound 30], in that order: “− (− = pIC50 <4.50)” and “+ (+ = pIC50 4.50-<5.00)”.
Take `O=C(NCc1ccc(F)cc1Cl)c1cc2ccccc2[nH]1` [Compound 31]: the “TDO cellular assay (A172) pIC50” value in experiment [1] is on record as “− (− = pIC50 <4.50)”. In experiment [2], the “IDO cellular assay (SKOV3) pIC50” value is “+ (+ = pIC50 4.50-<5.00)”.
In the case of `O=C(NCc1ccc(F)c(Cl)c1)c1cc2ccccc2[nH]1` [Compound 32], the “TDO cellular assay (A172) pIC50” value in experiment [1] is “− (− = pIC50 <4.50)”. For the same compound, the “IDO cellular assay (SKOV3) pIC50” value in experiment [2] is on record as “++ (++ = pIC50 5.00-<5.50)”.
For `O=C(NCc1cccc(Cl)c1)c1cc2cc(Cl)ccc2[nH]1` [Compound 33], in that order: “− (− = pIC50 <4.50)” and “++ (++ = pIC50 5.00-<5.50)”.
As for `O=C(NCc1ccc(Cl)cc1)c1cc2cc(Cl)ccc2[nH]1` [Compound 34], in experiment [1], the “TDO cellular assay (A172) pIC50” value was “− (− = pIC50 <4.50)”. The “IDO cellular assay (SKOV3) pIC50” value in experiment [2] was “+++ (+++ = pIC50 ≥5.50)”.
With `O=C(NCc1ccc(F)c(Cl)c1)c1cc2cc(Cl)ccc2[nH]1` [Compound 35], in experiment [1], the “TDO cellular assay (A172) pIC50” value was “− (− = pIC50 <4.50)”. The “IDO cellular assay (SKOV3) pIC50” value in experiment [2] is “+ (+ = pIC50 4.50-<5.00)”.
Taken in the same sequence, the figures for `CC(NC(=O)c1cc2cc(Cl)ccc2[nH]1)c1ccc(F)cc1` (stereo not drawn) [Compound 36] were “+ (+ = pIC50 4.50-<5.00)” and “+++ (+++ = pIC50 ≥5.50)”.
Taken in the same sequence, the figures for `CC(NC(=O)c1cc2ccccc2[nH]1)c1ccccn1` (stereo not drawn) [Compound 37] were “− (− = pIC50 <4.50)” and “+ (+ = pIC50 4.50-<5.00)”.
Take `Cc1c(C(=O)N[C@H](C)c2ccccc2)[nH]c2ccc(F)cc12` [Compound 38]: the “TDO cellular assay (A172) pIC50” value in experiment [1] is “+ (+ = pIC50 4.50-<5.00)”. In addition, the “IDO cellular assay (SKOV3) pIC50” value in experiment [2] is “++ (++ = pIC50 5.00-<5.50)”.
As to `C[C@H](c1ccccc1)N(C)C(=O)c1cc2cc(F)ccc2[nH]1` [Compound 39], the “TDO cellular assay (A172) pIC50” value in experiment [1] is “− (− = pIC50 <4.50)”. The “IDO cellular assay (SKOV3) pIC50” value in experiment [2] was “++ (++ = pIC50 5.00-<5.50)”.
For `C[C@H](NC(=O)c1cc2cc(F)ccc2[nH]1)c1ccccc1` [Compound 40], in that order: “++ (++ = pIC50 5.00-<5.50)” and “+ (+ = pIC50 4.50-<5.00)”.
`O=C(Nc1cccc2ncccc12)c1cc2cc(F)ccc2[nH]1` [Compound 41]: in experiment [1], the “TDO cellular assay (A172) pIC50” value was “− (− = pIC50 <4.50)”. In addition, the “IDO cellular assay (SKOV3) pIC50” value in experiment [2] is “+++ (+++ = pIC50 ≥5.50)”.
